Measured values taken from PubChem BioAssay (NCI).
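The compound was tested at five concentrations on cells cultured in 96-well plates, with a 48-hour exposure period. GI50 marks 50% less growth. Definition used: TGI = concentration required for complete inhibition of growth.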

Tests used:
Assay in all cases: NCI tumour cell line growth inhibition, 48 h
786-0 renal = test system: 786-0 renal
A498 renal = test system: A498 renal
A549 NSCLC = test system: A549 NSCLC
ACHN renal = test system: ACHN renal
BT-549 breast = test system: BT-549 breast
CAKI-1 renal = test system: CAKI-1 renal
CCRF-CEM leukemia = test system: CCRF-CEM leukemia
COLO 205 colon = test system: COLO 205 colon
DU-145 prostate = test system: DU-145 prostate
EKVX NSCLC = test system: EKVX NSCLC
HCC-2998 colon = test system: HCC-2998 colon
HCT-116 colon = test system: HCT-116 colon
HCT-15 colon = test system: HCT-15 colon
HL-60(TB) leukemia = test system: HL-60(TB) leukemia
HOP-62 NSCLC = test system: HOP-62 NSCLC
HOP-92 NSCLC = test system: HOP-92 NSCLC
HS 578T breast = test system: HS 578T breast
HT29 colon = test system: HT29 colon
IGROV1 ovarian = test system: IGROV1 ovarian
K-562 leukemia = test system: K-562 leukemia
KM12 colon = test system: KM12 colon
LOX IMVI melanoma = test system: LOX IMVI melanoma
M14 melanoma = test system: M14 melanoma
MALME-3M melanoma = test system: MALME-3M melanoma
MCF7 breast = test system: MCF7 breast
MDA-MB-231 breast = test system: MDA-MB-231 breast
MDA-MB-435 = test system: MDA-MB-435
MOLT-4 leukemia = test system: MOLT-4 leukemia
NCI-H226 lung = test system: NCI-H226 lung
NCI-H23 lung = test system: NCI-H23 lung
NCI-H460 lung = test system: NCI-H460 lung
NCI-H522 lung = test system: NCI-H522 lung
NCI/ADR-RES ovarian = test system: NCI/ADR-RES ovarian
OVCAR-3 ovarian = test system: OVCAR-3 ovarian
OVCAR-4 ovarian = test system: OVCAR-4 ovarian
OVCAR-5 ovarian = test system: OVCAR-5 ovarian
OVCAR-8 ovarian = test system: OVCAR-8 ovarian
PC-3 prostate = test system: PC-3 prostate
RXF 393 renal = test system: RXF 393 renal
SF-268 CNS = test system: SF-268 CNS
SF-295 CNS = test system: SF-295 CNS
SF-539 CNS = test system: SF-539 CNS
SK-MEL-2 melanoma = test system: SK-MEL-2 melanoma
SK-MEL-28 melanoma = test system: SK-MEL-28 melanoma
SK-MEL-5 melanoma = test system: SK-MEL-5 melanoma
SK-OV-3 ovarian = test system: SK-OV-3 ovarian
SN12C renal = test system: SN12C renal
SNB-19 CNS = test system: SNB-19 CNS
SNB-75 CNS = test system: SNB-75 CNS
SR leukemia = test system: SR leukemia
SW-620 colon = test system: SW-620 colon
T-47D breast = test system: T-47D breast
TK-10 renal = test system: TK-10 renal
U251 CNS = test system: U251 CNS
UACC-257 melanoma = test system: UACC-257 melanoma
UACC-62 melanoma = test system: UACC-62 melanoma
UO-31 renal = test system: UO-31 renal
RPMI-8226 leukemia = test system: RPMI-8226 leukemia

SMILES: CC(=O)[C@@]1(O)[C@H](C)C[C@H]2[C@@H]3C=C(C)C4=Cc5c(cnn5-c5ccccc5)C[C@]4(C)[C@H]3[C@@H](O)C[C@@]21C
- GI50 (786-0 renal): 2.23 µM
- TGI (786-0 renal): 5.2 µM
- GI50 (A498 renal): 3.45 µM
- TGI (A498 renal): 14.7 µM
- GI50 (A549 NSCLC): 1.82 µM
- TGI (A549 NSCLC): 13.9 µM
- GI50 (ACHN renal): 2.75 µM
- TGI (ACHN renal): 11.3 µM
- GI50 (BT-549 breast): 1.29 µM
- TGI (BT-549 breast): 5.17 µM
- GI50 (CAKI-1 renal): 2.46 µM
- TGI (CAKI-1 renal): 6.44 µM
- TGI (CCRF-CEM leukemia): 1.72 µM
- GI50 (COLO 205 colon): 1.86 µM
- TGI (COLO 205 colon): 3.93 µM
- GI50 (DU-145 prostate): 3.24 µM
- TGI (DU-145 prostate): 14 µM
- GI50 (EKVX NSCLC): 1.25 µM
- TGI (EKVX NSCLC): 11.4 µM
- GI50 (HCC-2998 colon): 2.13 µM
- TGI (HCC-2998 colon): 5.73 µM
- GI50 (HCT-116 colon): 2.46 µM
- TGI (HCT-116 colon): 11.4 µM
- GI50 (HCT-15 colon): 0.81 µM
- TGI (HCT-15 colon): 2.66 µM
- GI50 (HL-60(TB) leukemia): 3.62 µM
- TGI (HL-60(TB) leukemia): 41.9 µM
- GI50 (HOP-62 NSCLC): 3.58 µM
- TGI (HOP-62 NSCLC): 9.75 µM
- GI50 (HOP-92 NSCLC): 2.42 µM
- TGI (HOP-92 NSCLC): 14 µM
- GI50 (HS 578T breast): 2.97 µM
- TGI (HS 578T breast): 12.9 µM
- GI50 (HT29 colon): 0.946 µM
- TGI (HT29 colon): 4.38 µM
- GI50 (IGROV1 ovarian): 2.64 µM
- TGI (IGROV1 ovarian): 11 µM
- GI50 (K-562 leukemia): 0.659 µM
- GI50 (KM12 colon): 1.69 µM
- TGI (KM12 colon): 4.5 µM
- GI50 (LOX IMVI melanoma): 1.69 µM
- TGI (LOX IMVI melanoma): 4.6 µM
- GI50 (M14 melanoma): 2.84 µM
- TGI (M14 melanoma): 13.6 µM
- GI50 (MALME-3M melanoma): 1.76 µM
- TGI (MALME-3M melanoma): 5.36 µM
- GI50 (MCF7 breast): 1.97 µM
- TGI (MCF7 breast): 11 µM
- GI50 (MDA-MB-231 breast): 2.04 µM
- TGI (MDA-MB-231 breast): 5.4 µM
- GI50 (MDA-MB-435): 2.44 µM
- TGI (MDA-MB-435): 8.7 µM
- GI50 (MOLT-4 leukemia): 0.842 µM
- TGI (MOLT-4 leukemia): 8.7 µM
- GI50 (NCI-H226 lung): 2.5 µM
- TGI (NCI-H226 lung): 15.7 µM
- GI50 (NCI-H23 lung): 2.48 µM
- TGI (NCI-H23 lung): 9.96 µM
- GI50 (NCI-H460 lung): 1.4 µM
- TGI (NCI-H460 lung): 3.69 µM
- GI50 (NCI-H522 lung): 2.83 µM
- TGI (NCI-H522 lung): 8.85 µM
- GI50 (NCI/ADR-RES ovarian): 1.91 µM
- TGI (NCI/ADR-RES ovarian): 9.75 µM
- GI50 (OVCAR-3 ovarian): 2.08 µM
- TGI (OVCAR-3 ovarian): 4.84 µM
- GI50 (OVCAR-4 ovarian): 3.85 µM
- TGI (OVCAR-4 ovarian): 31.1 µM
- GI50 (OVCAR-5 ovarian): 1.52 µM
- TGI (OVCAR-5 ovarian): 5.76 µM
- GI50 (OVCAR-8 ovarian): 2.8 µM
- TGI (OVCAR-8 ovarian): 13.8 µM
- GI50 (PC-3 prostate): 2.06 µM
- TGI (PC-3 prostate): 10.1 µM
- GI50 (RXF 393 renal): 1.31 µM
- TGI (RXF 393 renal): 6.42 µM
- GI50 (SF-268 CNS): 2.81 µM
- TGI (SF-268 CNS): 16.6 µM
- GI50 (SF-295 CNS): 1.73 µM
- TGI (SF-295 CNS): 3.53 µM
- GI50 (SF-539 CNS): 1.22 µM
- TGI (SF-539 CNS): 2.85 µM
- GI50 (SK-MEL-2 melanoma): 2.45 µM
- TGI (SK-MEL-2 melanoma): 5.88 µM
- GI50 (SK-MEL-28 melanoma): 3.22 µM
- TGI (SK-MEL-28 melanoma): 13 µM
- GI50 (SK-MEL-5 melanoma): 1.61 µM
- TGI (SK-MEL-5 melanoma): 4.21 µM
- GI50 (SK-OV-3 ovarian): 0.76 µM
- TGI (SK-OV-3 ovarian): 10.5 µM
- GI50 (SN12C renal): 1.4 µM
- TGI (SN12C renal): 12.4 µM
- GI50 (SNB-19 CNS): 3.29 µM
- TGI (SNB-19 CNS): 14.2 µM
- GI50 (SNB-75 CNS): 2.65 µM
- TGI (SNB-75 CNS): 11 µM
- GI50 (SR leukemia): 1.77 µM
- GI50 (SW-620 colon): 1.91 µM
- TGI (SW-620 colon): 4.27 µM
- GI50 (T-47D breast): 2.3 µM
- TGI (T-47D breast): 10.3 µM
- GI50 (TK-10 renal): 1.97 µM
- TGI (TK-10 renal): 6.08 µM
- GI50 (U251 CNS): 1.51 µM
- TGI (U251 CNS): 6.23 µM
- GI50 (UACC-257 melanoma): 4.06 µM
- TGI (UACC-257 melanoma): 13.4 µM
- GI50 (UACC-62 melanoma): 2.24 µM
- TGI (UACC-62 melanoma): 5.76 µM
- GI50 (UO-31 renal): 2.08 µM
- TGI (UO-31 renal): 7.03 µM

SMILES: COc1ccc(-n2c(N)c(C#N)c(C#N)c2-c2ccccc2)cc1
- TGI (786-0 renal): > 100 µM
- TGI (A498 renal): > 100 µM
- TGI (A549 NSCLC): > 100 µM
- TGI (ACHN renal): > 100 µM
- TGI (BT-549 breast): > 100 µM
- TGI (CAKI-1 renal): > 100 µM
- TGI (CCRF-CEM leukemia): > 100 µM
- TGI (COLO 205 colon): > 100 µM
- TGI (DU-145 prostate): > 100 µM
- TGI (EKVX NSCLC): > 100 µM
- TGI (HCC-2998 colon): > 100 µM
- TGI (HCT-116 colon): > 100 µM
- TGI (HCT-15 colon): > 100 µM
- TGI (HL-60(TB) leukemia): > 100 µM
- TGI (HOP-62 NSCLC): > 100 µM
- TGI (HOP-92 NSCLC): 76.5 µM
- TGI (HS 578T breast): > 100 µM
- TGI (HT29 colon): > 100 µM
- TGI (IGROV1 ovarian): > 100 µM
- TGI (KM12 colon): > 100 µM
- TGI (LOX IMVI melanoma): > 100 µM
- TGI (M14 melanoma): > 100 µM
- TGI (MALME-3M melanoma): > 100 µM
- TGI (MCF7 breast): > 100 µM
- TGI (MDA-MB-231 breast): > 100 µM
- TGI (MDA-MB-435): > 100 µM
- TGI (MOLT-4 leukemia): > 100 µM
- TGI (NCI-H226 lung): > 100 µM
- TGI (NCI-H23 lung): > 100 µM
- TGI (NCI-H522 lung): > 100 µM
- TGI (NCI/ADR-RES ovarian): > 100 µM
- TGI (OVCAR-3 ovarian): > 100 µM
- TGI (OVCAR-4 ovarian): 93.2 µM
- TGI (OVCAR-5 ovarian): > 100 µM
- TGI (OVCAR-8 ovarian): > 100 µM
- TGI (PC-3 prostate): > 100 µM
- TGI (RPMI-8226 leukemia): > 100 µM
- TGI (RXF 393 renal): > 100 µM
- TGI (SF-268 CNS): > 100 µM
- TGI (SF-295 CNS): > 100 µM
- TGI (SF-539 CNS): > 100 µM
- TGI (SK-MEL-2 melanoma): > 100 µM
- TGI (SK-MEL-5 melanoma): > 100 µM
- TGI (SK-OV-3 ovarian): > 100 µM
- TGI (SN12C renal): > 100 µM
- TGI (SNB-19 CNS): > 100 µM
- TGI (SNB-75 CNS): 68.6 µM
- TGI (SR leukemia): > 100 µM
- TGI (SW-620 colon): > 100 µM
- TGI (T-47D breast): > 100 µM
- TGI (TK-10 renal): > 100 µM
- TGI (U251 CNS): > 100 µM
- TGI (UACC-257 melanoma): > 100 µM
- TGI (UACC-62 melanoma): > 100 µM
- TGI (UO-31 renal): > 100 µM
